Assay results from patent publication US8252829B2, “Aminopyrrolidinone derivatives and uses thereof” (Link Medicine Corporation, priority 2009, dated 2012).
pIC50, pKi: −log10 of the molar value.

Legend:
[1] = system: Farnesyl Transferase (Ras farnesylation) in COS-7 cells; experiment: Cellular assay for farnesyl transferase activity (cytosolic Ras in COS-7 cells, Western blot); type: cell-based; details: 24 hr treatment, cytosolic Ras/actin ratio, read-out: Cell IC50
Excerpt: Ras is a small GTP binding protein whose farnesylation and condequent membrane association can be reduced by inhibition of farnesyl transferase (Appels et al., Oncologist 10:565-578, 2005; Basso et al., J. Lipid Res. 47:15-31, 2006; Tamanoi, Trends Biochem. Sci. 18:349-353, 1993; each of which is incorporated herein by reference). Treatment with certain farnesyl transferase inhibitors (FTIs) reduces the farnesylation and membrane association of Ras, leading to accumulation of Ras in the cytosol of the cells. An assay was developed to monitor FTase activity, based on the amount of Ras present in the cytosolic fraction of COS-7 cells after FTI treatment. On day 0, COS-7 cells were passaged into 6-well plates at a density of 4×10^5 cells/well. Beginning on day 1, cells were treated with test compounds (e.g. FTIs) in 0.2% DMSO for 24 hr. On day 2, cells were lysed by passage through a 25 gauge needle 10 times in 100 μl Buffer 1 (50 mM Tris, 140 mM NaCl, 2 mM EDTA, protease inhibitor cocktail, pH 7.4) and lysates were centrifuged at 16,000 g for 30 min to isolate the cytosolic fraction (supernatant). The cytosolic fraction was analyzed by Western blot using anti-Ras antibody and anti-actin antibody for loaning control.
Western Blotting: Following transfer of SDS gels onto NC membrane, all membranes were blocked with 5% non-fat milk in TBST (50 mM Tris-HCl pH7.4, 150 mM NaCl, 0.1% Tween 20), incubated with primary antibody overnight with 1% BSA in TBST, washed three times with TBST, and incubated with horseradish peroxidase-conjugated secondary antibody for 1 hour (Promega). Bound antibodies were detected using enhanced chemiluminascence (NEM). Results were quantified based on densitometric analysis of Ras signal normalized to actin signal (Ras/actin ratio). Dose response curves were generated for serial dilutions of test compounds, which were then used to measure an IC50 for the test compound by curve fitting with Prism or equivalent software product.

[2] = target: farnesyl transferase (FTase) (Homo sapiens, UniProt P49354+P49356); experiment: In vitro farnesyl transferase assay (fluorescent dansyl-pentapeptide); type: biochemical; details: dGCVLS 4 μM, FPP 5 μM, 25-50 nM FTase, 1% DMSO, room temperature
Protocol: Compounds were analyzed for inhibition of farnesyl transferase (FTase) activity using an established fluorescent peptide-based assay (Pompliano et al 1992 J. Am. Chem. Soc. 114:7945; U.S. Pat. No. 5,525,479, issued Jun. 11, 1996; each of which is incorporated herein by reference). In summary, a dansyl-pentapeptide (dGCVLS) was incubated at 4 μM with 5 μM farnesyl pyrophosphate (FPP) and 25-50 nM FTase in 50 mM Tris-HCl/12 mM MgCl2/12 μM ZnCl2/6 mM DTT/0.2% octyl-D-β-glucopyranoside/pH 7.0 at room temperature while the increase in fluorescence of the peptide at Ex=340 nm, Em=485 nm upon farnesyl addition was monitored continuously by a spectrofluorometer. Test compounds were added to the reaction mixture and the final results were compared to negative control (with solvent only), to allow measurement of the degreee of inhibition at each concentration of compound tested. Serial dilution series of test compounds were used to allow measurement of the IC50s and calculation of the resultant Ki. The linear portion of the reaction progress curve thus created was measured to yield an initial rate (Vo); a plot of Vo versus inhibitor concentration was fit by non-linear regression analysis (GraphPad Prism software) to calculate the […] and the Ki. All reactions in the inhibitor experiments contain a final concentration of 1% DMSO.

[3] = system: isolated islets / INS1 cells; experiment: Oxygen consumption, Seahorse XF24 bioenergetic assay; type: cell-based, mice; details: 1 nM
Protocol: Impaired mitochondrial function is shown by a decreased rate of oxygen consumption. For example, INS1 cells exposed to palmitate show a significant decrease in oxygen consumption rate, both under basal glucose and following stimulation with glucose. The effect of compound 28 at 1 nM on oxygen consumption was determined at 2.5 and 3.5 day incubation time points. Oxygen consumption in INS1 was measured using a Seahorse XF24 bioenergetic assay. Assays have been previously described in detail (See, Wu M, et al. Am J Physiol Cell Physiol 2007; 292:C125-36).
In one aspect, islet oxygen consumption was measured using the XF24 Islet Capture Microplate available from Seahorse Biosciences. An example of an assay to measure islet consumption is as follows:
Modified XF Assay Media (MA Media): Supplement XF DMEM assay media with 3 mM glucose and 1% FBS to run whole islets. (FBS is needed to prevent islets from becoming too adherent). Components/Formulation of Modified XF Assay Media: […]
The XF assay template is prepared via the Assay Wizard using the XF24 operation manual. The assay template is uploaded to the XF24 Analyzer before starting the assay. […]
Whole islets are prepared by standard laboratory procedure. […] The islets are counted under a dissecting microscope. […] The count of the islets is determined and the volume adjusted so that there are ˜70 islets for every 100 microliters of the islet suspension. […]

SMILES	pIC50 [1]	pKi [2]	increase in mitochondrial respiration (Oxygen Consumption Rate vs. time, % of base line) ([3]; 2.5 days incubation (FIG. 1))	increase in oxygen consumption ([3]; isolated islets (FIGS. 1 and 2))
N#Cc1ccc(Cn2cncc2CN[C@@H]2CCN([C@@H]3CCOc4ccc(F)cc43)C2=O)cc1 [Compound 71]	8.60	–	–	–
N#Cc1ccc(Cn2cncc2CN[C@H]2CCN(C3CCOc4ccc(F)cc43)C2=O)cc1 (stereo partly shown) [Compound 70]	7.38	–	–	–
N#Cc1ccc(Cn2cncc2CN[C@H]2CCN([C@@H]3CCOc4ccc(Cl)cc43)C2=O)cc1 [Compound 29]	8.74	10.68	–	–
N#Cc1ccc(Cn2cncc2CN[C@H]2CCN([C@@H]3CCOc4ccc(F)cc43)C2=O)cc1 [Compound 28]	8.85	10.23	50%	50%
N#Cc1ccc(Cn2cncc2CN[C@H]2CCN([C@@H]3CCCc4ccc(Cl)cc43)C2=O)cc1 [Compound 30]	8.55	9.92	–	–
